IC50 data for 21 compounds are collected here from US8080657B2, “Compounds of reverse turn mimetics and the use thereof” (Choongwae Pharma Corporation, priority 2008, dated 2011).

This assay relates to Wnt signaling. The assay is described as follows: TopFlash reporter gene bioassay in SW480 cells. The format is cell-based. (In general: A reporter such as luciferase makes a cellular process visible.)
Setting [1] is: Homo sapiens, SW480, TopFlash reporter gene assay, inhibition of Wnt signaling, read-out: RGA, IC50 (μM) TopF.

Read-outs that look alike come from different tables or passages of the source.

Regarding `C=CCN1CC(=O)N2[C@@H](Cc3ccc(O)cc3)C(=O)N(Cc3cccc(-c4ccccc4)c3)C[C@@H]2N1C(=O)NCc1ccccc1` [compound 144], the IC50 under setting [1] was 1.94 ± 0.48 µM.

`C=CCOc1ccccc1CN1C[C@H]2N(C(=O)CN(CC=C)N2C(=O)NCc2ccccc2)[C@@H](Cc2ccc(O)cc2)C1=O` [compound 145]: the IC50 under setting [1] stood at 1.96 ± 0.27 µM.

Regarding `C=CCN1CC(=O)N2[C@@H](Cc3ccc(O)cc3)C(=O)N(Cc3cccc(Oc4ccccc4)c3)C[C@@H]2N1C(=O)NCc1ccccc1` [compound 146], the IC50 under setting [1] was determined as 1.99 ± 0.12 µM.

Consider `C=CCN1CC(=O)N2[C@@H](Cc3ccc(ON)cc3)C(=O)N(Cc3ccc(OC)c(Cl)c3)C[C@@H]2N1C(=O)NCc1ccccc1` [compound 147], for which, under setting [1], the concentration for half-maximal inhibition (IC50) amounted to 1.99 ± 0.32 µM.

As to `C=CCN1CC(=O)N2[C@@H](Cc3ccc(O)cc3)C(=O)N(Cc3csc4c([N+](=O)[O-])cccc34)C[C@@H]2N1C(=O)NCc1ccccc1` [compound 148], the IC50 (Homo sapiens, SW480, read-out: RGA, IC50 (μM) TopF) worked out at 10 ± 1.7 µM.

`C=CCN1CC(=O)N2[C@@H](Cc3ccc(O)cc3)C(=O)N(C/C=C/c3ccccc3)C[C@@H]2N1C(=O)NCc1ccccc1` [compound 149]: the IC50 under setting [1] was determined as 10.1 ± 2.38 µM.

As for `C=CCN1CC(=O)N2[C@@H](Cc3ccc(O)cc3)C(=O)N(Cc3cc(C(C)(C)C)cc(C(C)(C)C)c3OC)C[C@@H]2N1C(=O)NCc1ccccc1` [compound 150], the IC50 under setting [1] is 10.2 ± 1.55 µM.

As for `C=CCN1CC(=O)N2[C@@H](Cc3ccc(OS(=O)(=O)NC)cc3)C(=O)N(Cc3ccc(F)cc3F)C[C@@H]2N1C(=O)NCc1ccccc1` [compound 151], the IC50 under setting [1] was 10.2 ± 2.3 µM.

Consider `C=CCN1CC(=O)N2[C@@H](Cc3ccc(O)cc3)C(=O)N(Cc3ccnc(C(N)=O)c3)C[C@@H]2N1C(=O)NCc1ccccc1` [compound 153], for which the 50% inhibitory concentration (IC50) under setting [1] was 10.8 ± 1.97 µM.

Consider `C=CCN1CC(=O)N2[C@@H](Cc3ccc(O)cc3)C(=O)N(Cc3ccc(OCCCCC)cc3)C[C@@H]2N1C(=O)NCc1ccccc1` [compound 154], for which, under setting [1], the IC50 came to 11.8 ± 0.9 µM.

In the case of `C=CCN1CC(=O)N2[C@@H](Cc3ccc(O)cc3)C(=O)N(Cc3csc4cc(NC(=O)NC)ccc34)C[C@@H]2N1C(=O)NCc1ccccc1` [compound 155], under setting [1], the half-inhibitory concentration (IC50) amounted to 11.8 ± 1.61 µM.

Consider `C=CCN1CC(=O)N2[C@@H](Cc3ccc(O)cc3)C(=O)N(Cc3cccc(-c4ccc[nH]c4=O)c3)C[C@@H]2N1C(=O)NCc1ccccc1` [compound 156], for which, under setting [1], the IC50 turned out to be 12.2 ± 2.02 µM.

Regarding `C=CCN1CC(=O)N2[C@@H](Cc3ccc(O)cc3)C(=O)N(Cc3csc4cc(NC(=O)NC)ccc34)C[C@@H]2N1C(=O)NCc1ccccc1` [compound 157], the half-maximal inhibitory concentration (IC50) (TopFlash reporter gene assay, inhibition of Wnt signaling, read-out: RGA, IC50 (μM) TopF) amounted to 12.4 ± 2.36 µM.

In the case of `C=CCN1CC(=O)N2[C@@H](Cc3ccc(O)cc3)C(=O)N(Cc3ccc(F)c4scnc34)C[C@@H]2N1C(=O)NCc1ccccc1F` [compound 158], the IC50 under setting [1] is 12.5 ± 2.66 µM.

In the case of `C=CCN1CC(=O)N2[C@@H](Cc3ccc(O)cc3)C(=O)N(Cc3cn(CCC)c4ccccc34)C[C@@H]2N1C(=O)NCc1ccccc1` [compound 159], the IC50 under setting [1] is 14.1 ± 2.3 µM.

Take `C=CCN1CC(=O)N2[C@@H](Cc3ccc(O)cc3)C(=O)N(Cc3cccc(C(=O)NN)c3)C[C@@H]2N1C(=O)NCc1ccccc1` [compound 160]: the half-inhibitory concentration (IC50) under setting [1] came to 14.2 ± 2.05 µM.

Consider `C=CCN1CC(=O)N2[C@@H](Cc3ccc(O)cc3)C(=O)N(Cc3cccc(OC)c3OS(=O)(=O)CCCCCCCC)C[C@@H]2N1C(=O)NCc1ccccc1` [compound 161], for which the IC50 under setting [1] turned out to be 14.4 ± 2.77 µM.

Take `C=CCN1CC(=O)N2[C@@H](Cc3ccc(NC(N)=O)cc3)C(=O)N(Cc3cccc4scnc34)C[C@@H]2N1C(=O)NCc1ccccc1` [compound 162]: the IC50 under setting [1] amounted to 15.1 ± 3.34 µM.

Regarding `C=CCN1CC(=O)N2[C@@H](Cc3ccc(O)cc3)C(=O)N(Cc3cc(C(C)(C)C)cc(C(C)(C)C)c3)C[C@@H]2N1C(=O)NCc1ccccc1` [compound 163], the half-maximal inhibitory concentration (IC50) under setting [1] stood at 15.7 ± 1.87 µM.

As to `C=CCN1CC(=O)N2[C@@H](Cc3ccc(O)cc3)C(=O)N(Cc3ccccc3-n3cnnn3)C[C@@H]2N1C(=O)NCc1ccccc1` [compound 164], the IC50 under setting [1] stood at 15.7 ± 3.22 µM.

With `C=CCN1CC(=O)N2[C@@H](Cc3ccc(O)cc3)C(=O)N(Cc3cccnc3-c3ccccc3OC)C[C@@H]2N1C(=O)NCc1ccccc1` [compound 165], the IC50 under setting [1] was found to be 17.2 ± 4.11 µM.

Broadly, the IC50 is the concentration that gives 50% inhibition.
